Reference: ChEMBL document CHEMBL1201862, “PubChem BioAssay data set” (2004)
Calls of active or inactive are those of the source.

Experiments:
[1] = Trypanosoma cruzi growth suppression in host cells – NIH3T3 host cells, beta-gal luminescence, confirmation (AID 2044); assay type: functional, cell-based;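 note: intracellular parasites grown in NIH/3T3 mouse fibroblasts as host cells; luminescent beta-galactosidase reporter signal from transgenic T. cruzi replicating inside host cells; inhibitors lower the luminescence signal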
[2] = NIH3T3 cell viability loss – ATP luminescence, mouse fibroblasts, counter-screen, dose response (AID 2010); assay type: functional, cell-based;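 note: cells exposed to compound for about 90 hours before reading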
[3] = target: Voltage-dependent T-type calcium channel subunit alpha-1H (Homo sapiens, UniProt O95180); assay type: functional;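 note: channel activity triggered by adding a high calcium stimulation buffer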
[4] = blockers of HIV-1 envelope-mediated cell-cell fusion – cherry-pick, dose response (AID 652057); assay type: functional, cell-based
[5] = blockers of HIV-1 ZM109 envelope-driven cell-cell fusion – HeLa effector, CEM target cells, luciferase, cherry-pick, dose response (AID 652058); assay type: functional, cell-based;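 note: luciferase signal from HIV-1 Env mediated cell-cell fusion of effector and target cells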
[6] = HIV-1 AD8 envelope cell-cell fusion blockers – cherry-pick, dose response (AID 652062); assay type: functional, cell-based;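 note: luciferase signal from cell-cell fusion driven by HIV-1 clade B AD8 Env; potency is for inhibitors of fusion seen as a drop in luminescence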
Cytochrome P450 2C9 = Cytochrome P450 2C9 (Homo sapiens, UniProt P11712)
Protein skinhead-1 = target: T1, Protein skinhead-1 (Caenorhabditis elegans, UniProt P34707); assay type: functional
T1 sequence (P34707 whole entry): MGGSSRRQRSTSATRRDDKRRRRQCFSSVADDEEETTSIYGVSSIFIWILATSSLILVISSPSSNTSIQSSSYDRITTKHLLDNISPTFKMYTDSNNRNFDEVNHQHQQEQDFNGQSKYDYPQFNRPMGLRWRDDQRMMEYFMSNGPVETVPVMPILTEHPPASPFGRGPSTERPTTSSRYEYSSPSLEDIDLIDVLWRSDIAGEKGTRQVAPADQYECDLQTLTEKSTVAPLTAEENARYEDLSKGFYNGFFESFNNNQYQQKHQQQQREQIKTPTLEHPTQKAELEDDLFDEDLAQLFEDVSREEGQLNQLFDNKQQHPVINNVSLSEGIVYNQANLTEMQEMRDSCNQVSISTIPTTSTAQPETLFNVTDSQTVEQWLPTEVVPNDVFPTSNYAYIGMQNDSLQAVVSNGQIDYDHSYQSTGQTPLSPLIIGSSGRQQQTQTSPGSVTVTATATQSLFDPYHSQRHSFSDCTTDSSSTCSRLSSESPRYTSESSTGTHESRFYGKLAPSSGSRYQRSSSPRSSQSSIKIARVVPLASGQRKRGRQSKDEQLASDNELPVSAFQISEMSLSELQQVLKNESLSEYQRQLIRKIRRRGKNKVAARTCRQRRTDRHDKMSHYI

Fatty acid synthase [7] = target: T2, Fatty acid synthase (Homo sapiens, UniProt P49327); experiment: inhibition of human FAS-TE enzyme activity – biochemical, endpoint fluorescence intensity, uHTS hits, dose response (AID 624327); assay type: functional;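 note: fluorescence from hydrolysis of an O-methyl fluorescein acyl ester substrate by the enzyme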
Fatty acid synthase [8] = target: T2, Fatty acid synthase; experiment: inhibition of human FAS-TE enzyme activity – biochemical, kinetic fluorescence intensity, dose response (AID 624326); assay type: functional;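 note: rate of fluorescence rise from hydrolysis of a fluorogenic O-methyl fluorescein ester substrate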
Aminopeptidase N = target: T3, Aminopeptidase N (Plasmodium falciparum FcB1/Columbia, UniProt O96935); experiment: malaria alanyl aminopeptidase activity blockers – biochemical, fluorogenic H-Leu-NHMec substrate, 1536-well (AID 1445); parameters: species or system Plasmodium falciparum 3D7, 3D7
T3 sequence (O96935 whole entry): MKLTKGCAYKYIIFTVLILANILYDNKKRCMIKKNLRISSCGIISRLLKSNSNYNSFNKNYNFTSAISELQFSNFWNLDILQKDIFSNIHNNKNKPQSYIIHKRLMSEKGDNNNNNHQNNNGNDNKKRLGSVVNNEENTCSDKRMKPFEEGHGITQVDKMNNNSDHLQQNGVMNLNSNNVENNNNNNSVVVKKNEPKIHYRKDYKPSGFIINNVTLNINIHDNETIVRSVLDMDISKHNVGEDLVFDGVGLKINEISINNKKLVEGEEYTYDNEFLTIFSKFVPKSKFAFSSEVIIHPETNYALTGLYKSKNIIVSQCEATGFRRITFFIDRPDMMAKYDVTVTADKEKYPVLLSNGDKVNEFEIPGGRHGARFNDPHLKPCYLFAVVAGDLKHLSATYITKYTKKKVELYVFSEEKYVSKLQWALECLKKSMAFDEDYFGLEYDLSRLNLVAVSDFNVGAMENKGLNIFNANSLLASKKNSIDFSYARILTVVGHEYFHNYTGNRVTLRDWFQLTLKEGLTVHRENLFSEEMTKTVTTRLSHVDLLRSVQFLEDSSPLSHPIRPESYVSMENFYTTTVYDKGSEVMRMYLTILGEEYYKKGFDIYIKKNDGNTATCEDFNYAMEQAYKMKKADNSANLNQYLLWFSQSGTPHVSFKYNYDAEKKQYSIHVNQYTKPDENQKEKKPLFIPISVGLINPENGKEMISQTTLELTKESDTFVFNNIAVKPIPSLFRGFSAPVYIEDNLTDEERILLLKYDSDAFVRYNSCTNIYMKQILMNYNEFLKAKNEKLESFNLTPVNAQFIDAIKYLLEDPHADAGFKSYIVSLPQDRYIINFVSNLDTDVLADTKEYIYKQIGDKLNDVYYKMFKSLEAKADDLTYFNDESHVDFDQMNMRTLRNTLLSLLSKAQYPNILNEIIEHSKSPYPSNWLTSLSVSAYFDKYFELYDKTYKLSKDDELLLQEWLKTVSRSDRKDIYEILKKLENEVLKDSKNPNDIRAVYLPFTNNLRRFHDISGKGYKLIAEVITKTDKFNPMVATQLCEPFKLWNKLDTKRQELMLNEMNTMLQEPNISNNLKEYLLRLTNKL

[9] = microbe, parasite or virus in culture; assay type: functional; details: Mycobacterium tuberculosis
[10] = THP-1 cell cytotoxicity, dose response, cytotoxicity control for non-replicating M. tuberculosis project (AID 489025); assay type: functional
[11] = HepG2 cell cytotoxicity, dose response, cytotoxicity control for non-replicating M. tuberculosis project (AID 489018); assay type: functional; details: Mycobacterium tuberculosis
[12] = Vero E6 cell cytotoxicity, dose response, cytotoxicity control for non-replicating M. tuberculosis project, secondary assay (AID 492998); assay type: functional, VeroE6; details: Vero C1008
cells = assay type: functional
[13] = test system: Streptococcus sp. 'group A'; experiment: Streptococcus pyogenes SK(-)GAS viability under kanamycin – luminescence, BacTiterGlo, confirmation, counter-screen for streptokinase expression inhibitor project, dose response (AID 1900); assay type: functional, organism-based
Streptokinase A = target: T4, Streptokinase A (Streptococcus pyogenes serotype M1, UniProt P10520); experiment: viability-normalized secreted streptokinase activity reduction – plasminogen activation absorbance, OD405, dose response (AID 1914); assay type: functional, Streptococcus pyogenes M1 GAS;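 note: secreted streptokinase activity via plasminogen activation per viability signal from cell pellet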
T4 sequence (P10520 whole entry): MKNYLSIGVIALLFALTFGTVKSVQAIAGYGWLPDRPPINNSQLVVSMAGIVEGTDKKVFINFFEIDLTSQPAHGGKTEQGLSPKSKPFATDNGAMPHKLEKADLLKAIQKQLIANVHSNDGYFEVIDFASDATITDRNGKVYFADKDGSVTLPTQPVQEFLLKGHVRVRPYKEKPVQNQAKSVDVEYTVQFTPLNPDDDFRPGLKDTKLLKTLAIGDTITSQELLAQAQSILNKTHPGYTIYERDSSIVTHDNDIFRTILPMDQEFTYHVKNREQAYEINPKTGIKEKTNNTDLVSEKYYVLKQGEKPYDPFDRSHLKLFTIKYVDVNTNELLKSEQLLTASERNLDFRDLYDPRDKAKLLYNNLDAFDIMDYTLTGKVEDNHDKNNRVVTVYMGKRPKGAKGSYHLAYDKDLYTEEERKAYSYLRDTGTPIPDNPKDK

Streptococcus = experiment: GAS UMAA2166 growth inhibition – luminescence, BacTiterGlo, counter-screen for streptokinase expression inhibitor project, dose response (AID 1915); assay type: functional, organism-based;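 note: potency for reduction of bacterial viability or growth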

Chain of Voltage-dependent T-type calcium channel subunit alpha-1H (O95180 whole entry, the tested form may be a part): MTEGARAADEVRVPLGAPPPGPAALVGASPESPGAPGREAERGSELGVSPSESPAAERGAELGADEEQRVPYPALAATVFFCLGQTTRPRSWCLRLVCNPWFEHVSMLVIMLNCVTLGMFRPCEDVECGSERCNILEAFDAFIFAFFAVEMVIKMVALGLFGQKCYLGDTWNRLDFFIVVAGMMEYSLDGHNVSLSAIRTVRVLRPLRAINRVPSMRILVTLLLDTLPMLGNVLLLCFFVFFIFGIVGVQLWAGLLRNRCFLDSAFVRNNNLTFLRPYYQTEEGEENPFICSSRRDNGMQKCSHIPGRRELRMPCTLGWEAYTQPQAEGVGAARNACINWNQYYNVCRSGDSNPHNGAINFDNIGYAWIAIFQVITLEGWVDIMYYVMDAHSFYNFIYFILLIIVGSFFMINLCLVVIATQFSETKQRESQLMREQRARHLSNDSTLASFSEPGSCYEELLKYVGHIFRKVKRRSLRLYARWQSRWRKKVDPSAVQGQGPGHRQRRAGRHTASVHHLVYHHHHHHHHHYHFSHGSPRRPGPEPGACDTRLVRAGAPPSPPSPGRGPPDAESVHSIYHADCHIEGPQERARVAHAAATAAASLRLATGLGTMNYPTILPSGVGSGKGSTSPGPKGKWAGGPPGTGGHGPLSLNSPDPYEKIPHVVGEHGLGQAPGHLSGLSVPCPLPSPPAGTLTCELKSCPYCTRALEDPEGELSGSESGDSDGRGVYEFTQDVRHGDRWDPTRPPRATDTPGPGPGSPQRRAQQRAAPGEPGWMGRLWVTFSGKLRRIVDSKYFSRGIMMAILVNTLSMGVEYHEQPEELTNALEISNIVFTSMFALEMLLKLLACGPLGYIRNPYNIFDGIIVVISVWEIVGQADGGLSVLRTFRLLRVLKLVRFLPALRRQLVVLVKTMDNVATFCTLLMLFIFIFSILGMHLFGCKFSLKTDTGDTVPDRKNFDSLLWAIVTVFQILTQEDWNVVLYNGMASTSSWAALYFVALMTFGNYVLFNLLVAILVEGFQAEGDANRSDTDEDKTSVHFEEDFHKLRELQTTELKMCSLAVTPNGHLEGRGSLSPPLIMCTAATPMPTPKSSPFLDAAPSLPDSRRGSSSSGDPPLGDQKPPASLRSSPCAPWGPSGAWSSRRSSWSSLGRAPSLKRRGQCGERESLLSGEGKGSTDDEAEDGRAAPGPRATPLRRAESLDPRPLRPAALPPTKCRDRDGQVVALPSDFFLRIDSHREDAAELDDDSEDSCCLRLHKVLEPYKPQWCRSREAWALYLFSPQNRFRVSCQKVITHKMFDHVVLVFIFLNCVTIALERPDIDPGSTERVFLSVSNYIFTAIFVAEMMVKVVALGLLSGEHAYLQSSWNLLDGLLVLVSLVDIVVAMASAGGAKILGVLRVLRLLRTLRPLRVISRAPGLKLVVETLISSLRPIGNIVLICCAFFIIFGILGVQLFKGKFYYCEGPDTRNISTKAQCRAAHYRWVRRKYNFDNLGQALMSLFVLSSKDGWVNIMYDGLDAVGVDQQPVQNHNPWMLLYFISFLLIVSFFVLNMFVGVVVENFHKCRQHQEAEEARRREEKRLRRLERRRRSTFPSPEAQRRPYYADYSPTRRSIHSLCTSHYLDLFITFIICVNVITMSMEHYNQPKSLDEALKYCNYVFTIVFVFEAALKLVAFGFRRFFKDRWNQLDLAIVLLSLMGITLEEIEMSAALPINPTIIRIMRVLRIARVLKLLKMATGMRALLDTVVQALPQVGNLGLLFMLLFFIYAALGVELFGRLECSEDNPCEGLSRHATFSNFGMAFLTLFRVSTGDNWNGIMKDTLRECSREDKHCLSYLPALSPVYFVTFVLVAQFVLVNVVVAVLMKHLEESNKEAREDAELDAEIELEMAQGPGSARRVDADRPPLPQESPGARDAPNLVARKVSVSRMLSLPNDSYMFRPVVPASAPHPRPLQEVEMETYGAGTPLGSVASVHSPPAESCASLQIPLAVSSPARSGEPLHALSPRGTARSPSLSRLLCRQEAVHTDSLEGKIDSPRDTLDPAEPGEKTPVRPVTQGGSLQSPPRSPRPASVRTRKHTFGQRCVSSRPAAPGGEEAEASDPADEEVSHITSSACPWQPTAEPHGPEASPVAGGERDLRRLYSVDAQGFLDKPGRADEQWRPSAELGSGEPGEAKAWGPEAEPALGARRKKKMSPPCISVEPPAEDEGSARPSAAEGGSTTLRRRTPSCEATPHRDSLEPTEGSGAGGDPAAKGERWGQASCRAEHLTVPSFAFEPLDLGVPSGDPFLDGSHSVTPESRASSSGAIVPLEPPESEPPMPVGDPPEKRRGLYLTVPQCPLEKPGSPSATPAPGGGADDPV
Chain of Cytochrome P450 2C9 (P11712 whole entry): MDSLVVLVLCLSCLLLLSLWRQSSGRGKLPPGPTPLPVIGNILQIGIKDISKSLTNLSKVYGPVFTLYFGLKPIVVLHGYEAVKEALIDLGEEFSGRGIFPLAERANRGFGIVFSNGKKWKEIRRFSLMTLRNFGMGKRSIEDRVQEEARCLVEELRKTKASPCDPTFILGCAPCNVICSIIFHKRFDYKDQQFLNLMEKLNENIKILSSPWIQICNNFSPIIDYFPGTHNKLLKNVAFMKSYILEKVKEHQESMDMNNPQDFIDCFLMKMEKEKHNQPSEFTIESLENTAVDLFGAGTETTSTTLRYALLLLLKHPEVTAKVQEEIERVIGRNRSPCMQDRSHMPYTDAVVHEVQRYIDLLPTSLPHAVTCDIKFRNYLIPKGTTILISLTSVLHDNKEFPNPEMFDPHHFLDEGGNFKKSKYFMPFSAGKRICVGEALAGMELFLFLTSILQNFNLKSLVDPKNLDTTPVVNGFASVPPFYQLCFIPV

SMILES: Cc1c(Cl)cccc1NC(=O)c1nc(C)n(-c2cc(OC(C)C)c(Cl)cc2Cl)n1
- EC50 [1]: 2.77 µM (active)
- EC50 [2]: > 60 µM (not active)
- EC50 [3]: 7.19 µM (active)

SMILES: C[C@H](CO)N1C[C@H](C)[C@H](CN(C)C(=O)NC2CCCC2)Oc2cc(C#Cc3ccc(F)cc3)ccc2S1(=O)=O
- AC50 [4]: 24.5 µM (active)
- AC50 [5]: 13.2 µM (active)
- AC50 [6]: 24.9 µM (active)

SMILES: CCC(=O)Nc1cc2c(cc1C(=O)c1ccccc1)OCCO2
- AC50 (Cytochrome P450 2C9): inconclusive

SMILES: CCn1c(SCC(=O)NC2CCCCC2)nnc1-c1cc2cccc(OC)c2o1
- IC50 (Protein skinhead-1): > 100 µM (inactive)
- AC50 (Cytochrome P450 2C9): inconclusive

SMILES: C=CCn1cc(C(=O)NCc2ccco2)c(=O)c2cc(S(=O)(=O)N3CCCCCC3)ccc21
- EC50 [3]: 6.32 µM (active)
- IC50 (Fatty acid synthase [7]): 6.69 µM (active)
- IC50 (Fatty acid synthase [8]): 7.26 µM (active)

SMILES: Cc1ccc(-c2n[nH]c3c2C(c2cccc(O)c2)N(c2ccc(C(=O)O)cc2)C3=O)cc1 (stereo not drawn)
- IC50 (Aminopeptidase N): 36.6 µM (active)

SMILES: CCn1c(NC(=O)c2nn(C)cc2Br)nc2ccccc21
- CC50 [9]: > 40 µM (active)
- CC50 [10]: > 40 µM (active)
- CC50 [11]: > 20 µM (active)
- CC50 [12]: > 20 µM (active)
- IC50 (cells): 5.5 µM (active)

SMILES: Cc1cccc(C)c1NC(=O)CSc1nnc(-c2ccccc2)n1Cc1ccc2c(c1)OCO2
- EC50 [3]: 5.4 µM (active)

SMILES: Cc1cc(NC(=O)c2sccc2C)n(-c2nc3ccccc3[nH]2)n1
- EC50 [13]: 3.9 µM (active)
- EC50 (Streptokinase A): > 150 µM (not active)
- CC50 [9]: 28.5 µM (active)
- EC50 (Streptococcus): 5.49 µM (active)
- CC50 [10]: > 40 µM (active)
- CC50 [11]: > 20 µM (active)
- CC50 [12]: 12.8 µM (active)
- IC50 (cells): 4.09 µM (active)

SMILES: O=C(CSc1nnc(-c2ccc(Cl)cc2)n1Cc1ccco1)NCc1ccc2c(c1)OCO2
- EC50 [3]: 1.11 µM (active)
